Laboratory results: the NIST ThermoML archive (doi:10.1016/j.jct.2018.12.013)

Conditions: Liquid, Gas chromatography

C=CC(=C)CCC=C(C)C [2-methyl-6-methylene-2,7-octadiene]
Conditions	vapor or sublimation pressure [kPa]
287.7 K	0.1
297.15 K	0.21
298.15 K	0.22
313.2 K	0.57
320.4 K	0.87
323.2 K	1
328.2 K	1.3
330 K	1.5
333.3 K	1.8
338.2 K	2.3
340.2 K	2.5
343.5 K	2.9
348.2 K	3.7
353.2 K	4.6
353.4 K	4.6
355.8 K	5.2
358.2 K	5.7
360 K	6.2
363.3 K	7.1
365.8 K	7.9
366.2 K	8
370 K	9.4
371.9 K	10
379.2 K	13
385 K	17
390 K	20
399.2 K	27
410 K	38
418.2 K	49
421.5 K	54
428.2 K	65
433.5 K	76
439.1 K	90
444.7 K	101

CC1(C)C2=CCCC(C)(C)[C@]23CC[C@H]1C3 [(-)-isolongifolene]
Conditions	vapor or sublimation pressure [kPa]
298.15 K	0.0043
310 K	0.011
320 K	0.023
330 K	0.046
340 K	0.086
350 K	0.16
360 K	0.27
370 K	0.46
378.2 K	0.69
380.2 K	0.76
386.2 K	1
388.2 K	1.1
392.2 K	1.3
393.2 K	1.4
395 K	1.5
400 K	1.8
410 K	2.8
419.2 K	4
424.2 K	4.8
430 K	6
440 K	8.5
450 K	11.8
460 K	16
470 K	22
480 K	29
490 K	38
500 K	50
510 K	63.88
520 K	81
527 K	95.41
528.2 K	100
529.6 K	101
